Results as given in ChEMBL document CHEMBL1201862, “PubChem BioAssay data set” (2004).
Calls of active or inactive are those of the source.

Key:
[1] = biological target: Voltage-dependent T-type calcium channel subunit alpha-1H (Homo sapiens, UniProt O95180); format: functional;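 also: channel activity triggered by adding a high calcium stimulation buffer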
[2] = M. tuberculosis H37Rv growth inhibitors, H37Rv strain (AID 1626); format: functional
[3] = biological target: T1, Calpain-2 catalytic subunit (Sus scrofa, UniProt P43367); assay: m-calpain protease blockers, concentration series – biochemical, fluorogenic peptide substrate, dose response (AID 1420); format: functional
T1 sequence (P43367 whole entry): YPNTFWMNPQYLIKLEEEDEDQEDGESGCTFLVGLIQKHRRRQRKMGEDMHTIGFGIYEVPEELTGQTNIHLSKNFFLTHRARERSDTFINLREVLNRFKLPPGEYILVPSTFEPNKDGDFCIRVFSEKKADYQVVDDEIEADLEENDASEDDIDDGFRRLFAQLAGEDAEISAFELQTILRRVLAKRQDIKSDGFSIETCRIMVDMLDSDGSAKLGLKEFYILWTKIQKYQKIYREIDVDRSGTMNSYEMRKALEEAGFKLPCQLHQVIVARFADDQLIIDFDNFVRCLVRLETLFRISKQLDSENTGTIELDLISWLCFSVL

H4 = assay: Luminescence Cell-Based Dose Response HTS to Identify Activators of 5'UTR Stem-Loop Driven Prion Protein mRNA Translation in H4 Neuroglioblastoma Cells. [Related pubchem assays: 1829 (Project Summary), 1814 (Primary HTS)]; format: functional; settings: Homo sapiens
[4] = Luminescence Cell-Based Dose Response HTS to Identify Activators of Luciferase Translation or Activity in H4 […] Cells. [Related pubchem assays: 1829 (Project Summary), 1814 (Primary HTS)]; format: functional
[5] = Luminescence Cell-Based Dose Confirmation HTS to Identify Activators of 5'UTR Stem-Loop Driven Alpha-Synuclein mRNA Translation in H4 Neuroglioblastoma Cells. [Related pubchem assays: 1829 (Project Summary), 1814 (Primary HTS)]; format: functional
[6] = Luminescence Cell-Based Dose Response to Identify Activators of 5'UTR Stem-Loop Driven Prion Protein mRNA Translation in H4-C Neuroglioblastoma Cells. [Related pubchem assays: 1829 (Project Summary), 1814 (Primary HTS)]; format: functional
[7] = Luminescence Cell-Based Dose Confirmation to Identify Activators of 5'UTR Stem-Loop Driven Alpha-Synuclein mRNA Translation in H4 Neuroglioblastoma Cells. [Related pubchem assays: 1829 (Project Summary), 1814 (Primary HTS)]; format: functional
[8] = Luminescence Cell-Based Dose Response to Identify Activators of Luciferase Translation or Activity in H4-C Neuroglioblastoma Cells. [Related pubchem assays: 1829 (Project Summary), 1814 (Primary HTS)]; format: functional
[9] = biological target: T2, Tyrosine-protein phosphatase non-receptor type 7 (Homo sapiens, UniProt P35236); assay: HePTP tyrosine phosphatase activity blockers – biochemical, absorbance, leukemia target, primary screen (AID 521); format: functional
T2 sequence (P35236 whole entry): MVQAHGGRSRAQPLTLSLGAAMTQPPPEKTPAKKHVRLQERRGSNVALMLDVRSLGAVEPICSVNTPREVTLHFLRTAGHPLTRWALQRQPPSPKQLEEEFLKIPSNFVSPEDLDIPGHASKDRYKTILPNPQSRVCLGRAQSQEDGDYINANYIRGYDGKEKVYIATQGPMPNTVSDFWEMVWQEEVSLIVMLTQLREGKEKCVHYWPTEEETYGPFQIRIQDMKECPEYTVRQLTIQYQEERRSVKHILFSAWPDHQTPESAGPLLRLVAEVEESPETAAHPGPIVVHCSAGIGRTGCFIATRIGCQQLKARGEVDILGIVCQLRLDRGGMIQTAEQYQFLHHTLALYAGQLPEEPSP

[10] = Trypanosoma cruzi growth suppression in host cells – NIH3T3 host cells, beta-gal luminescence, confirmation (AID 2044); format: functional, cell-based;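 also: intracellular parasites grown in NIH/3T3 mouse fibroblasts as host cells; luminescent beta-galactosidase reporter signal from transgenic T. cruzi replicating inside host cells; inhibitors lower the luminescence signal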
[11] = NIH3T3 cell viability loss – ATP luminescence, mouse fibroblasts, counter-screen, dose response (AID 2010); format: functional, cell-based;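 also: cells exposed to compound for about 90 hours before reading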
Cytochrome P450 3A4 = Cytochrome P450 3A4 (Homo sapiens, UniProt P08684); settings: Potency;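 also: confirmatory qHTS run detecting inhibitors and substrates of CYP3A4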
Sequence of Cytochrome P450 3A4 (P08684 whole entry): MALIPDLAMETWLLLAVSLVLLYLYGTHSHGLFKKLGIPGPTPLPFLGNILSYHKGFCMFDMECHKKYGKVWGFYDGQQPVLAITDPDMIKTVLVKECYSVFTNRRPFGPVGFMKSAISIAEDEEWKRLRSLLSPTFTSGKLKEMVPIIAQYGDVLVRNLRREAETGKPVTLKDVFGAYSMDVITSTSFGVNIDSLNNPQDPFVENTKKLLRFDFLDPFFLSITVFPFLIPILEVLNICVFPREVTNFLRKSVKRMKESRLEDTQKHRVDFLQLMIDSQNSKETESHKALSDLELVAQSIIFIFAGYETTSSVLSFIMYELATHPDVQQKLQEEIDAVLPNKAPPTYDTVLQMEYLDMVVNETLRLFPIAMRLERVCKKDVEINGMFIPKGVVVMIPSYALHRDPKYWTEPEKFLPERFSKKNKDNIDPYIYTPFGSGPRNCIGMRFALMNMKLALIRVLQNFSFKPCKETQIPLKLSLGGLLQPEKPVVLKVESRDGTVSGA

[12] = P. falciparum Dd2 growth inhibitors, dose response, SYBR Green, cherry-picked samples (AID 1159567); format: functional, cell-based
[13] = growth inhibition of yeast DHODH-expressing 3D7 parasites – SYBR Green, dry powder samples, dose response (AID 1159570); format: functional, cell-based;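 also: parasite growth measured after 72 hours of compound exposure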
[14] = Dd2 malaria parasite growth inhibition potency – SYBR Green, dry powder samples, dose response (AID 1159566); format: functional, cell-based;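 also: potency for growth inhibition with lower SYBR green DNA signal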
[15] = toxicity to human hepatoma HepG2 cells – cell-based, cherry-picked samples, cytotoxicity control, dose response (AID 1159577); format: functional
[16] = growth inhibition of PfATP4-mutant resistant parasites – NITD609-resistant line, SYBR Green, dry powder, dose response (AID 1159571); format: functional, cell-based;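 also: parasites synchronized at ring stage by sorbitol before testing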
[17] = toxicity to human HepG2 hepatoma cells – cell-based, plate reader, dry powder samples, cytotoxicity control, dose response (AID 1159569); format: functional;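 also: inhibitor potency with signal falling toward the positive control level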

Sequence of Voltage-dependent T-type calcium channel subunit alpha-1H (O95180 whole entry): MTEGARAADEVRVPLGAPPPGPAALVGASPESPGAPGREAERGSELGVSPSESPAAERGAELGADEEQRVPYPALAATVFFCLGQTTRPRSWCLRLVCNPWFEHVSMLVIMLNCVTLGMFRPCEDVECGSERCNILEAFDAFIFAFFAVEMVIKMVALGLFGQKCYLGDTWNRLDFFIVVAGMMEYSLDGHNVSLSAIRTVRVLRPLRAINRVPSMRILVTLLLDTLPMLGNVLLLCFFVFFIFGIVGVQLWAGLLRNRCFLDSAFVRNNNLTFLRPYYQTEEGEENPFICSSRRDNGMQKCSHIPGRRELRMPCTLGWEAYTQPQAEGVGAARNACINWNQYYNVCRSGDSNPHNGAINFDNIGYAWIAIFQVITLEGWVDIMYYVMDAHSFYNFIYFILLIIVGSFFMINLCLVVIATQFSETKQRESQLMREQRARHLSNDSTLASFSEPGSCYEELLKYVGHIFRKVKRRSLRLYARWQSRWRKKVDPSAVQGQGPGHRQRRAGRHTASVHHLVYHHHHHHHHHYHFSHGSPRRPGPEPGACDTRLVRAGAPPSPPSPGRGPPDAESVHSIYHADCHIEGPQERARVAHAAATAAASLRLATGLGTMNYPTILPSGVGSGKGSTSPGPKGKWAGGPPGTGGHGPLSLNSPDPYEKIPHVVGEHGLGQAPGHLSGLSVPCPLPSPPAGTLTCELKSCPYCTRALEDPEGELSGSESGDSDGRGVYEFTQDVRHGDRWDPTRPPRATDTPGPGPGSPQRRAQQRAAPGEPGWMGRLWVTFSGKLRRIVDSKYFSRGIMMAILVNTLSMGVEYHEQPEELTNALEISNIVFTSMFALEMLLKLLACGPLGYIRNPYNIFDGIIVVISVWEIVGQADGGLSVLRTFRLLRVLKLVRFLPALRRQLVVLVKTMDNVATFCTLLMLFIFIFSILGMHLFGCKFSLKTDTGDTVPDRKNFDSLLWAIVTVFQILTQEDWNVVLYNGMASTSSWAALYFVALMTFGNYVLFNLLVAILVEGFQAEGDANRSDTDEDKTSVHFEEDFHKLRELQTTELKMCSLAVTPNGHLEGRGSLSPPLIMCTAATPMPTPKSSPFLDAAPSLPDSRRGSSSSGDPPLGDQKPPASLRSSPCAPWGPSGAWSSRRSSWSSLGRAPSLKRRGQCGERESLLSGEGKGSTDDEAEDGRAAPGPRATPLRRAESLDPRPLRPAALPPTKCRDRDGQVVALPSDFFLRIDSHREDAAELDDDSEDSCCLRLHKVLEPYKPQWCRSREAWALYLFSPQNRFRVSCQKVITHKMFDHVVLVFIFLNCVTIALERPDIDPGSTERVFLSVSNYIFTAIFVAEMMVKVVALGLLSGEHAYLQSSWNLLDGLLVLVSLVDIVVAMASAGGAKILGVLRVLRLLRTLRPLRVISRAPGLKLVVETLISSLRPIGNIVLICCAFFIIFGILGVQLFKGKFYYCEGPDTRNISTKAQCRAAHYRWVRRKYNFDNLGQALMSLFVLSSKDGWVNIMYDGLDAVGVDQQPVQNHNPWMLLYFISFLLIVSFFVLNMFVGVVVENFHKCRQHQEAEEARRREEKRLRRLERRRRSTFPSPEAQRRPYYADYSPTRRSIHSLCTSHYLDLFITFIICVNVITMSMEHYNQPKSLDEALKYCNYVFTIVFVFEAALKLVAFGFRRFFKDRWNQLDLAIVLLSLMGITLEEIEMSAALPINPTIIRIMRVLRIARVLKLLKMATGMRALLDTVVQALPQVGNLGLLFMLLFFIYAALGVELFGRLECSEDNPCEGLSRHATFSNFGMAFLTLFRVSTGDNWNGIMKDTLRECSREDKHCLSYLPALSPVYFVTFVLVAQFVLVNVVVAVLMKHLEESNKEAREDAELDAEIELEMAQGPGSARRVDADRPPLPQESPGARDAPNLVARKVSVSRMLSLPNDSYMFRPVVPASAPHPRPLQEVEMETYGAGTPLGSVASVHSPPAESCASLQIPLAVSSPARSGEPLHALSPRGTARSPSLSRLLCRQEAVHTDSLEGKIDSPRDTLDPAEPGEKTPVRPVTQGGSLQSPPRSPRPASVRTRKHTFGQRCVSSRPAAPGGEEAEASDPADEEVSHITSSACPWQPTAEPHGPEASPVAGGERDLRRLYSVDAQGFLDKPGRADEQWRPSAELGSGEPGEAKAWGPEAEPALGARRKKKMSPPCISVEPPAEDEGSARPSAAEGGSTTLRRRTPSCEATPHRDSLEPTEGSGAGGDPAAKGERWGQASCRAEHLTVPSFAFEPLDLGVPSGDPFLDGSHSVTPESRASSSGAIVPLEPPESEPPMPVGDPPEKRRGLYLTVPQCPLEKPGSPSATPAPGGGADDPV

COc1ccccc1NC(=O)N1CCc2[nH]c3ccc(Cl)cc3c2C1
EC50 [1]: 11400 nM (active)

O=C(Nc1cccnc1)c1cc2cc(Br)ccc2oc1=O
IC50 [2]: > 100000 nM (active) | IC50 [3]: 17600 nM (not active)

CC(C)c1ccc(C(=O)NN2C(=O)C3CCCCC3C2=O)cc1 (stereo not given)
EC50 (H4): 28800 nM (active) | EC50 [4]: 118 nM (active) | EC50 [5]: < 100 nM (active) | EC50 [6]: 1210 nM (active) | EC50 [7]: 1330 nM (active) | EC50 [8]: 1480 nM (active)

c1ccc(-n2ncc3c(N4CCC5(CC4)OCCO5)ncnc32)cc1
EC50 (H4): > 120000 nM (not active) | EC50 [4]: < 100 nM (active) | EC50 [6]: 1100 nM (active) | EC50 [7]: 247 nM (active) | EC50 [8]: 364 nM (active)

O=C(CCCn1c(=S)[nH]c2ccsc2c1=O)NCc1ccco1
IC50 [9]: > 100000 nM (not active)

CCC(=O)Nc1ccc(NC(=O)c2ccco2)c(OC)c1
IC50 [9]: > 100000 nM (not active)

COc1ccc(N2Cc3ccccc3C2)cc1Cl
IC50 [2]: > 100000 nM (active)

O=C(CCSc1ccccc1)Nc1nnc(-c2ccccc2)o1
IC50 [2]: > 100000 nM (active)

CC1CCc2c(sc(NC(=O)Cn3cnc([N+](=O)[O-])n3)c2C(N)=O)C1 (stereo not given)
EC50 [10]: < 100 nM (active) | EC50 (cells): 102 nM (active) | EC50 [11]: > 30000 nM (not active)

Oc1ccc2c(c1)OCC1c3cc4c(cc3OC21)OCO4 (stereo not given)
AC50 (Cytochrome P450 3A4): 39800 nM (inconclusive)

CCCc1cn(CC[C@H]2CC[C@@H](NS(=O)(=O)c3ccc(-c4ccccc4)cc3)[C@@H](CO)O2)nn1
AC50 [12]: 689 nM (active) | AC50 [13]: 963 nM (active) | AC50 [14]: 914 nM (active) | AC50 [15]: > 39000 nM (inactive) | AC50 [16]: 833 nM (active) | AC50 [17]: 47400 nM (active)

COc1ccc(C#Cc2ccc([C@@H]3[C@@H](CO)N4CCCCN(Cc5ccccc5F)C[C@H]34)cc2)cc1
AC50 [12]: 807 nM (active) | AC50 [15]: 7910 nM (active)
